Measurements: US9365571B2, “Piperidino-pyrimidine derivatives for the treatment of viral infections” (Janssen Sciences Ireland UC, priority 2012, dated 2016)

Assays:
Type in all cases: cell-based
human TLR8 = assay: TLR8 cellular NFκB-luc reporter assay in transiently transfected HEK293 cells; conditions: lowest effective concentration, 6 hours incubation
Protocol: (§1) The ability of compounds to activate human TLR7 and/or TLR8 was assessed in a cellular reporter assay using HEK293 cells transiently transfected with a TLR7 or TLR8 expression vector and NFκB-luc reporter construct. In one instance the TLR expression construct expresses the respective wild type sequence or a mutant sequence comprising a deletion in the second leucine-rich repeat of the TLR.
(§2) Briefly, HEK293 cells were grown in culture medium (DMEM supplemented with 10% FCS and 2 mM Glutamine). For transfection of cells in 10 cm dishes, cells were detached with Trypsin-EDTA, transfected with a mix of CMV-TLR7 or TLR8 plasmid (750 ng), NFκB-luc plasmid (375 ng) and a transfection reagent and incubated overnight at 37° C. in a humidified 5% CO2 atmosphere. Transfected cells were then detached with Trypsin-EDTA, washed in PBS and resuspended in medium to a density of 1.67×10^5 cells/mL. Thirty microliters of cells were then dispensed into each well in 384-well plates, where 10 μL of compound in 4% DMSO was already present. Following 6 hours incubation at 37° C., 5% CO2, the luciferase activity was determined by adding 15 μl of Steady Lite Plus substrate (Perkin Elmer) to each well and readout performed on a ViewLux ultraHTS microplate imager (Perkin Elmer). Dose response curves were generated from measurements performed in quadruplicates. Lowest effective concentrations (LEC) values, defined as the concentration that induces an effect which is at least two fold above the standard deviation of the assay, were determined for each compound.

human TLR7 = assay: TLR7 cellular NFκB-luc reporter assay in transiently transfected HEK293 cells; conditions: lowest effective concentration, 6 hours incubation
Protocol: as §1, §2

PBMC-IFNa = assay: PBMC-IFNa; conditions: Table IIC; lowest effective concentration; read-out: PBMC-IFNa (LEC)

Structure (SMILES)	Human TLR8 (LEC, μM) (human TLR8; Table II A) [µM]	Human TLR7 (LEC, μM) (human TLR7; Table II A) [µM]	minimal effective concentration (PBMC-IFNa) [µM]	Human TLR8 (LEC, μM) (human TLR8; Table IIC) [µM]	Human TLR7 (LEC, μM) (human TLR7; Table IIC) [µM]	further results
CCCCNc1nc(N)nc2c1CN(C(=O)C1CCC1)CC2 [Compound 1]						Human TLR8 (LEC, μM) (human TLR8; Table II B): 0.32 µM; Human TLR7 (LEC, μM) (human TLR7; Table II B): 0.83 µM
CCCCNc1nc(N)nc2c1CCN(C(=O)c1ccccc1)C2 [Compound 2]	0.75	3.96				
CCCCNc1nc(N)nc2c1CCN(C(=O)c1cccn1C)C2 [Compound 3]	0.60	0.79				
CCCCNc1nc(N)nc2c1CCN(C(=O)C1CC1)C2 [Compound 4]	0.47	6.82				
CCCCNc1nc(N)nc2c1CN(C(C)=O)CC2 [Compound 5]						Human TLR8 (LEC, μM) (human TLR8; Table II B): 0.50 µM; Human TLR7 (LEC, μM) (human TLR7; Table II B): 4.90 µM
CCCCNc1nc(N)nc2c1CN(C(=O)Cc1cccs1)CC2 [Compound 6]						Human TLR8 (LEC, μM) (human TLR8; Table II B): 0.88 µM; Human TLR7 (LEC, μM) (human TLR7; Table II B): 3.45 µM
CCCCNc1nc(N)nc2c1CN(C(=O)C(C)C)CC2 [Compound 7]						Human TLR8 (LEC, μM) (human TLR8; Table II B): 1.62 µM; Human TLR7 (LEC, μM) (human TLR7; Table II B): 8.13 µM
CCCCNc1nc(N)nc2c1CN(C(=O)CC)CC2 [Compound 8]						Human TLR8 (LEC, μM) (human TLR8; Table II B): 0.40 µM; Human TLR7 (LEC, μM) (human TLR7; Table II B): 2.34 µM
CCCCNc1nc(N)nc2c1CCN(C(=O)Cc1cccs1)C2 [Compound 9]	0.46	1.60				
CCCCNc1nc(N)nc2c1CCN(C(=O)c1cc(C)n(C)n1)C2 [Compound 10]	0.71	2.04				
CCCCNc1nc(N)nc2c1CCN(C(=O)C1CCC1)C2 [Compound 11]	0.51	2.10				
CCCCNc1nc(N)nc2c1CCN(C(=O)c1cccs1)C2 [Compound 12]	0.36	2.40				
CCCCNc1nc(N)nc2c1CCN(C(=O)C(C)C)C2 [Compound 13]	0.85	3.21				
CCCCNc1nc(N)nc2c1CCN(C(=O)c1cscn1)C2 [Compound 14]	0.90	4.43				
CCCCNc1nc(N)nc2c1CCN(C(=O)c1csc(N)n1)C2 [Compound 15]	1.31	4.66				
CCCCNc1nc(N)nc2c1CCN(C(=O)COC)C2 [Compound 16]	1.49	5.37				
CCCCNc1nc(N)nc2c1CCN(C(C)=O)C2 [Compound 17]	0.43	5.82				
CCCCNc1nc(N)nc2c1CCN(C(=O)c1nccn1C)C2 [Compound 18]	0.96	6.16				
CCCCNc1nc(N)nc2c1CCN(C(=O)c1ccccn1)C2 [Compound 19]	0.83	6.59				
CCCCNc1nc(N)nc2c1CCN(C(=O)c1sccc1Cl)C2 [Compound 20]	0.68	7.15				
CCCCNc1nc(N)nc2c1CCN(C(=O)c1ccsc1)C2 [Compound 21]	1.85	8.13				
CCCCNc1nc(N)nc2c1CCN(C(=O)c1cnccn1)C2 [Compound 22]	1.37	9.35				
CCCCNc1nc(N)nc2c1CCN(C(=O)CC#N)C2 [Compound 23]	2.67	11.62				

Structure (SMILES)	Human TLR8 (LEC, μM) (human TLR8; Table II A) [µM]	Human TLR7 (LEC, μM) (human TLR7; Table II A) [µM]	minimal effective concentration (PBMC-IFNa) [µM]	Human TLR8 (LEC, μM) (human TLR8; Table IIC) [µM]	Human TLR7 (LEC, μM) (human TLR7; Table IIC) [µM]	further results
CCCCNc1nc(N)nc2c1CCN(C(=O)CC(F)(F)F)C2 [Compound 24]	2.29	12.93				
CCCCNc1nc(N)nc2c1CCN(C(=O)[C@@H](N)C(C)C)C2 [Compound 25]			1.1	1.8	20.0	
CCCCNc1nc(N)nc2c1CCN(C(=O)[C@H](C)N)C2 [Compound 26]			0.6	2.1	16.8	
CCCCNc1nc(N)nc2c1CCN(C(=O)c1csnn1)C2 [Compound 27]			1.2	1.9	>25	
CCCCNc1nc(N)nc2c1CCN(C(=O)c1ccncc1)C2 [Compound 28]			1.9	2.2	8.6	
CCCCNc1nc(N)nc2c1CCN(C(=O)C1CCOCC1)C2 [Compound 29]			8.7	7.5	>25	
CCCCNc1nc(N)nc2c1CCN(C(=O)CC)C2 [Compound 30]			0.5	0.5	5.0	
CCCCNc1nc(N)nc2c1CN(C(=O)C1CCOCC1)CC2 [Compound 31]			1.3	0.6	7.7	
CCCCNc1nc(N)nc2c1CN(C(=O)CC#N)CC2 [Compound 32]			0.9	0.6	7.1	
CCCCNc1nc(N)nc2c1CN(C(=O)c1ccsc1)CC2 [Compound 33]			0.2	0.2	0.3	
CCCCNc1nc(N)nc2c1CN(C(=O)c1cc(C)on1)CC2 [Compound 34]			0.2	0.4	0.8	
CCCCNc1nc(N)nc2c1CN(C(=O)c1cocn1)CC2 [Compound 35]			0.2	0.2	0.7	
CCCCNc1nc(N)nc2c1CCN(C(=O)c1cocn1)C2 [Compound 36]			0.6	0.9	4.7	
CCCCNc1nc(N)nc2c1CCN(C(=O)c1nccc3ccccc13)C2 [Compound 37]			1.8	1.7	7.2	
CCCCNc1nc(N)nc2c1CCN(C(=O)c1cc(C)on1)C2 [Compound 38]			0.6	0.8	5.2	
CCC[C@@H](CCO)Nc1nc(N)nc2c1CN(C(=O)c1ccccc1)CC2 [Compound 39]			0.5	4.2	2.5	
CCC[C@@H](CCO)Nc1nc(N)nc2c1CN(C(=O)c1cscn1)CC2 [Compound 40]			0.2	4.5	2.2	
CCC[C@@H](CCO)Nc1nc(N)nc2c1CN(C(=O)c1ccco1)CC2 [Compound 41]			0.1	0.4	0.4	
CCC[C@@H](CCO)Nc1nc(N)nc2c1CN(C(=O)c1csc(C)n1)CC2 [Compound 42]			0.2	2.1	2.2	
CCCC[C@@H](CCO)Nc1nc(N)nc2c1CN(C(=O)c1ccco1)CC2 [Compound 43]			0.04	0.7	0.1	
CCCC[C@@H](CCO)Nc1nc(N)nc2c1CN(C(=O)c1csc(C)n1)CC2 [Compound 44]			0.2	6.6	1.0	
CCC[C@@H](CCO)Nc1nc(N)nc2c1CCN(C(=O)c1ccncc1)C2 [Compound 52]				15	12.1	
